This is an account of results in patent US10927096B2, “Ester substituted ion channel blockers and methods for use” (Nocion Therapeutics, Inc., priority 2019, dated 2021).

The target in series [1] is T1, NaV1.7 (Homo sapiens, UniProt Q15858).
T1 construct: expressed in transfected cells; host or cells: HEK293, tetracycline-inducible
The series can be described thus: Whole cell patch clamp, external block of NaV1.7 current. Format: cell-based. To be noted: % inhibition, compound in external solution, manual whole cell patch clamp, read-out: Nav1.7 Extracellular Inhibition; for inhibition at 1 µM: test concentration 1 μM; for inhibition at 30 µM: test concentration 30 μM; for inhibition at 10 µM: test concentration 10 μM; for inhibition at 3 µM: test concentration 3 μM; for inhibition at 100 µM: test concentration 100 μM. As to the method:
(§1) NaV1.7 was expressed upon induction with tetracycline. Cells were cultured in DMEM containing 10% dialyzed Fetal Bovine Serum (VWR, Radnor, Pa.), 1% Glutamax (VWR, Radnor, Pa.), 1% Penicillin-Streptomycin (VWR, Radnor, Pa.), 100 mg/L Hygromycin (Thermo Fisher Scientific, Waltham, Mass. and 5 mg/L Blasticidin (Alfa Aesar, Haverhill, Mass.). Cells were grown and maintained at 37° C. in a humidified environment containing 10% C02 in air. Cells were detached from the culture flask for passage and harvested using 0.05% Trypsin-EDTA (Thermo Fisher Scientific, Waltham, Mass.). To induce NaV1.7, cells were induced with tetracycline (0.1-1 μg/mL, IBI Scientific, Peosta, Iowa) the day before recording and plated onto 24-well plates. Cells were washed with DPBS (VWR, Radnor, Pa.), trypsinized and then triturated five times in 10 mL of growth media to break apart cell aggregates. For one 24-well plate, 2 mL of cell suspension was mixed with 23 mL of fresh growth media and 0.1-1 μg/mL tetracycline added. 1 ml of mixed media with cells was then added to each well of a 24-well plate, with a 12 mm coverslip already placed in the bottom of the well. Cells were then incubated in 37° C. and 10% CO2 overnight.
(§2) The intracellular solution contained the following (in mM) CsCl 135, NaCl 10, EGTA 10, HEPES 10, MgCl2 2, adjusted to pH 7.2 with CsOH. The external solution was a normal Ringer solution containing (in mM) NaCl 155, HEPES 10, glucose 10, KCl 3.5, CaCl2 1.5, MgCl2 1 adjusted to pH 7.4 with NaOH. CsCl is from Alfa Aesar, Haverhill, Mass. All other chemicals are from Sigma-Aldrich, St. Louis, Mo. In order to test the degree of internal block by test compounds the compounds were dissolved in internal solution at the indicated test concentration. […] In order to test the degree of external block by test compounds the compounds were dissolved in external solution at the indicated test concentration.
(§3) 18-24 hours after cells were induced with tetracycline, coverslips were placed into a chamber filled with Normal Ringer solution at room temperature and the chamber placed on a microscope. Pipettes were pulled from borosilicate glass on a P97 puller (Sutter Instrument, Novato, Calif.) and polished with a MF-830 Microforge (Narishige International USA, Inc, Amityville, N.Y.) to have a resistance of 1.5-2.5 MΩ when filled with CsCl internal solution at room temperature. Healthy cells (those that are round and translucent with no visible blemishes) were chosen for seal formation. A seal was formed between the pipette and the cell, and a brief pulse of suction was used to “break in” and establish the whole-cell configuration. The membrane potential was held at −100 mV before the voltage protocol began. Only cells with series resistance between 1.5-5 MΩ were retained for analysis. The voltage protocol was as follows: Cells were held at −100 mV for 12 ms followed by a hyperpolarizing step to −105 mV for 12 ms to monitor the leak. Cells were then stepped back to −100 mV for 40 ms. Cells were then depolarized to −20 mV for 10 ms and then returned to −100 mV for 26 ms (The FIGURE).
Once the recording was started, the voltage protocol was run at 30 second intervals for 5 minutes to get a stable baseline. This is followed by 5 Hz stimulation of the same voltage protocol run until the end of experiment. […] The test compound is added for 5 minutes before washing out with normal Ringer's solution. Currents were recorded using PatchMaster software with Heka EPC10 (HEKA Electronics, Lambrecht, Germany). Only cells with inward current amplitudes at −20 mV between 400 pA and 4 nA were accepted. In addition, cells having leak currents greater than 10% of their current amplitudes were discarded.
(§4) The data was plotted using the Patchmaster software (HEKA Electronics, Lambrecht, Germany) and analyzed by plotting the minimum current during the voltage step to −20 mV (peak inward current) as a function of time. […]
(In general: The patch-clamp technique gives a direct electrical read-out from membranes.)

Series [2] can be described thus: PAMPA membrane permeability assay. Format: physicochemical. To be noted: pH 7.4 buffer, GIT lipid, 4 hours incubation. As to the method: The PAMPA assay (pION, Inc., Woburn Mass.) was used to determine the ability of compounds of the invention to cross an artificial lipid membrane by passive diffusion. Test compounds were dissolved in DMSO (10 mM) and diluted 200-fold in buffer (pION Inc., pH 7.4) to provide 50 uM stock solutions. Buffer (150 μL) was added to a UV blank plate and stock solutions (150 μL) were transferred to a UV reference plate. The blank and reference spectrum were read using a spectrophotometer. Stock solutions (200 μL) were added to the donor plate of the PAMPA sandwich plate and an accept plate painted with GIT lipid (pION Inc, 5 μL) was placed on top. Buffer (200 μL) was added to the acceptor plate and the PAMPA sandwich plate was incubated for 4 hours. Aliquots (150 μL) from the acceptor plate were added to a UV plate and read as acceptor spectrum. Aliquots (150 μL) of the donor solutions were added to a UV analysis plate and read as donor spectrum. The permeability coefficient of test compounds was calculated using PAMPA Explorer™ software (version 3.5.0.4) based on the AUC of the reference plate, the donor plate, and the acceptor plate.
The PAMPA permeability results (10^−6 cm/s) of representative compounds are reported as “+” (<0.1 10^−6 cm/s), “++” (0.1-2.0 10^−6 cm/s), “+++” (2.0-10.010^−6 cm/s) or “++++” (>10.0 10^−6 cm/s).
A general note: The PAMPA barrier holds no transporters, so it reflects passive diffusion.

The target of series [3] is T1, NaV1.7. The series can be described thus: Whole cell patch clamp, internal block of NaV1.7 current. It counts as cell-based. To be noted: % inhibition at 1 μM test concentration, compound in internal solution, manual whole cell patch clamp. As to the method:
as §1, §2, §3
Once the recording was started, the voltage protocol was run at 30 second intervals for 5 minutes to get a stable baseline. This was followed by four 30-second periods of 5 Hz stimulation of the same voltage protocol separated by 1 minute of rest which was then followed by 0.33 Hz stimulation after the last train. Currents were recorded using PatchMaster software with Heka EPC10 (HEKA Electronics, Lambrecht, Germany). Only cells with inward current amplitudes at −20 mV between 400 pA and 4 nA were accepted. In addition, cells having leak currents greater than 10% of their current amplitudes were discarded.
as §4

Where only a bound is given, the exact number is not on record here.

T1 sequence (Q15858 whole entry): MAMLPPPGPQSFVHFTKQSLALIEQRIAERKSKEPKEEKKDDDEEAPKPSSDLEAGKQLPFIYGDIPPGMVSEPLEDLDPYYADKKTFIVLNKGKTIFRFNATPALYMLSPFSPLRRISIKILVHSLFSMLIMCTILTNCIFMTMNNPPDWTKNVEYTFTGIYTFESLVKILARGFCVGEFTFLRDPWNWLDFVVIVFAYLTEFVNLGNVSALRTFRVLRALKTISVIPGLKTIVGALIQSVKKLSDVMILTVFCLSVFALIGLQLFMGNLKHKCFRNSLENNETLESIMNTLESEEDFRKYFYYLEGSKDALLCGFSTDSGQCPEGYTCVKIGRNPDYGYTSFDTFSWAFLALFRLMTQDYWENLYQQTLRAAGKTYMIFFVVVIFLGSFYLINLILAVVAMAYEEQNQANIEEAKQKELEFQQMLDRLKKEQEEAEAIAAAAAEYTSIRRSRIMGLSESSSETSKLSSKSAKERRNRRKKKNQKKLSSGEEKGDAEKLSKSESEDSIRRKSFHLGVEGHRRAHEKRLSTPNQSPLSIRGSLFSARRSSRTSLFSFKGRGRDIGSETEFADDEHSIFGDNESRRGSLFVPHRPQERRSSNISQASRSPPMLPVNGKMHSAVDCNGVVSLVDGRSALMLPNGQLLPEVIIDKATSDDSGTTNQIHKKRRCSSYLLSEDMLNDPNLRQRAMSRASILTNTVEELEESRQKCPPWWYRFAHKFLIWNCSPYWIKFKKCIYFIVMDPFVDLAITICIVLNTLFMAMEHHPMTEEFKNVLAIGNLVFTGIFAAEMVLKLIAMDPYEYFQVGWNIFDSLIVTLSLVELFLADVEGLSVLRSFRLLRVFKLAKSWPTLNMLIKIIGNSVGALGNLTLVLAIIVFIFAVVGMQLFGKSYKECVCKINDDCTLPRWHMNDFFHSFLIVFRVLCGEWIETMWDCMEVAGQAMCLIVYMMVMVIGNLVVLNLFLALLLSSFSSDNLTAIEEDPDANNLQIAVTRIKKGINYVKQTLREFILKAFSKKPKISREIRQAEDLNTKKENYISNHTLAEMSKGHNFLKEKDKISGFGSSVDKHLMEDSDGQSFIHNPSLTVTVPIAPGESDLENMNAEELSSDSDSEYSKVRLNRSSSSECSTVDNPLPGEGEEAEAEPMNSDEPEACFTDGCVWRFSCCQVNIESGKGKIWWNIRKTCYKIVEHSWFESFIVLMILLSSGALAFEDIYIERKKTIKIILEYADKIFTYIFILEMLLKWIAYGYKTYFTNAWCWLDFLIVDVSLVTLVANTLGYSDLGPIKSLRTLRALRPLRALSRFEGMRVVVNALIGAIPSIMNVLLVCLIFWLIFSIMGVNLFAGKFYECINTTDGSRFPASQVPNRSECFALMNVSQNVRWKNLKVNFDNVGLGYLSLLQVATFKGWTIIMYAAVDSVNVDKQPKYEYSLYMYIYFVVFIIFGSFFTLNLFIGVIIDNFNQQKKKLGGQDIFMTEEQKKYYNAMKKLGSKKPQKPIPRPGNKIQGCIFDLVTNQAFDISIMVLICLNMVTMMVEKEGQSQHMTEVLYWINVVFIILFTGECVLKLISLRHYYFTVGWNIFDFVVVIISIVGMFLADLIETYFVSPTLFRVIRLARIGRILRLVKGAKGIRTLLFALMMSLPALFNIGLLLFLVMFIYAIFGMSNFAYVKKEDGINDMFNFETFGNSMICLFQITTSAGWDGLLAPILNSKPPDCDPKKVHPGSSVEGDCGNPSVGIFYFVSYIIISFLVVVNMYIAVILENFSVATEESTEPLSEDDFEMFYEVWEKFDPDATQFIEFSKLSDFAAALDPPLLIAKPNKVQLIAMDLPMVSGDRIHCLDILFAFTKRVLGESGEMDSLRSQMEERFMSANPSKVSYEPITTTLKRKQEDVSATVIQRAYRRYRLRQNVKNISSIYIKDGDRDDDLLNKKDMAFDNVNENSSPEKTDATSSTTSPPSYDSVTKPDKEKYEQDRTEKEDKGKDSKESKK

For `CCOC(=O)c1cccc(C)c1NC(=O)C[N+]1(Cc2ccccc2)CCCCCCC1` [Compound 10A], the inhibition (as a rule, the percentage by which the read-out fell short of the control) at 1 µM in series [1] lay in the range of 40 to 70%. On to `CCOC(=O)c1cccc(C)c1NC(=O)C[N+]1(Cc2ccccc2)CCCCCC1` [Compound 2A], for which the inhibition at 1 µM in series [1] was below 40%. `CCOC(=O)C1CCC[N+](CC(=O)Nc2c(C)cccc2C(=O)OC)(Cc2ccccc2)C1` (centres unmarked) [Compound 16A]: the inhibition at 30 µM in series [1] is 40 to 70%. The same measure, in the same setting: as for `COC(=O)c1cccc(C)c1NC(=O)C[n+]1cccc(-c2ccccc2)c1` [Compound 66A, 1-(2-((2-(methoxycarbonyl)-6-methylphenyl)amino)-2-oxoethyl)-3-phenylpyridin-1-ium Bromide], the figure is 40 to 70%. On to `CCOC(=O)C1CCC[N+](CC)(CC(=O)Nc2c(C)cccc2C(=O)OC)C1.[I-]` (centres unmarked) [Compound 24], for which, in series [2], the “PAMPA (10^−6 cm/s)” value is given as “+ (<0.1 10^−6 cm/s)”. The “NaV1.7 Intracellular Inhibition” value in series [3] was “++ (70-30%)”. On to `CCCN(CCC)C(=O)C1CCC[N+](CC(=O)Nc2c(C)cccc2C(=O)OC)(Cc2ccccc2)C1.[Br-]` (centres unmarked) [Compound 39], for which the “PAMPA (10^−6 cm/s)” value in series [2] is “+ (<0.1 10^−6 cm/s)”. In addition, the “NaV1.7 Intracellular Inhibition” value in series [3] is “+ (<30%)”. For `CNC(=O)C[N+]1(CC(=O)Nc2c(C)cccc2C(=O)OC)CCCC(c2ccccc2)C1` (centres unmarked) [Compound 59A, 1-(2-((2-(methoxycarbonyl)-6-methylphenyl)amino)-2-oxoethyl)-1-(2-(methylamino)-2-oxoethyl)-3-phenylpiperidin-1-ium Bromide], the inhibition at 10 µM in series [1] is below 40%. As for `COC(=O)c1cccc(C)c1NC(=O)C[N+]1(Cc2ccccc2)CCCCCC1` [Compound 1A, 1-benzyl-1-(2-((2-(methoxycarbonyl)-6-methylphenyl)amino)-2-oxoethyl)azepan-1-ium Bromide], the inhibition at 3 µM in series [1] was below 40%. In the case of `CCOC(=O)c1cccc(C)c1NC(=O)C[N+]1(Cc2ccccc2)CCCC1` [Compound 9A], the inhibition at 10 µM in series [1] is below 40%. Turning to `CCOC(=O)c1cccc(C)c1NC(=O)C[N+]1(Cc2ccccc2)CCCCCCC1.[Br-]` [Compound 10], the “PAMPA (10^−6 cm/s)” value in series [2] is “+ (<0.1 10^−6 cm/s)”. Moreover, in series [3], the “NaV1.7 Intracellular Inhibition” value is “+++ (90-70%)”. For the compound `CCOC(=O)c1cccc(C)c1NC(=O)C[N+]1(Cc2ccccc2)CCCCC1` [Compound 4A], the inhibition at 3 µM in series [1] was below 40%. As to `CCOC(=O)c1cccc(C)c1NC(=O)C[n+]1cccc(-c2ccccc2)c1` [Compound 67A], the inhibition at 10 µM in series [1] is below 40%. Take `CCOC(=O)c1cccc(C)c1NC(=O)C[n+]1cccn1C1CCCCC1.[Br-]` [Compound 70]: the “PAMPA (10^−6 cm/s)” value in series [2] is reported as “+ (<0.1 10^−6 cm/s)”. In series [3], the “NaV1.7 Intracellular Inhibition” value was “++ (70-30%)”. Take `CCN(CC)C(=O)C1CCC[N+](CC(=O)Nc2c(C)cccc2C(=O)OC)(Cc2ccccc2)C1.O=C([O-])C(F)(F)F` (centres unmarked) [Compound 38]: in series [2], the “PAMPA (10^−6 cm/s)” value was “+ (<0.1 10^−6 cm/s)”. Moreover, the “NaV1.7 Intracellular Inhibition” value in series [3] is listed as “++ (70-30%)”. Take `CC[N+]1(CC(=O)Nc2c(C)cccc2C(=O)OC)CCCC(c2ccccc2)C1` (centres unmarked) [Compound 65A]: the inhibition at 10 µM in series [1] lay in the range of 40 to 70%. Turning to `CCNC(=O)C1CCC[N+](CC)(CC(=O)Nc2c(C)cccc2C(=O)OC)C1.O=C[O-]` (centres unmarked) [Compound 49], the “PAMPA (10^−6 cm/s)” value in series [2] is listed as “+ (<0.1 10^−6 cm/s)”. In series [3], the “NaV1.7 Intracellular Inhibition” value is reported as “+ (<30%)”.

As for `COC(=O)c1cccc(C)c1NC(=O)C[N+]1(Cc2ccccc2)CCCCC1` [Compound 3A], the inhibition at 100 µM in series [1] was 40 to 70%. In the case of `CC[N+]1(CC(=O)Nc2c(C)cccc2C(=O)OC)CCCC(C(=O)N(C)C)C1.[I-]` (centres unmarked) [Compound 44], in series [2], the “PAMPA (10^−6 cm/s)” value is listed as “+ (<0.1 10^−6 cm/s)”. In series [3], the “NaV1.7 Intracellular Inhibition” value is given as “+ (<30%)”.

Turning to `COC(=O)c1cccc(C)c1NC(=O)C[N+]1(CC(N)=O)CCCC(c2ccccc2)C1` (centres unmarked) [Compound 61A], the inhibition at 100 µM in series [1] fell in the range of 40 to 70%.
